This note sets out measurements from patent US20150238487A1, “NOVEL ERGOLINE DERIVATIVES AND USES THEREOF” (MAP Pharmaceuticals, Inc., priority 2012, published 2015).

For one assay, the target named is T1, Adenosine A2a (Homo sapiens, UniProt P29274).
T1 construct: expressed in transfected cells; host or cells: HEK293
In words: cAMP HTRF assay, Adenosine A2a. The note with it: agonism; HEK293, cAMP. The class given is cell-based. How it is done: (§1) Receptor […] activity assays were performed using 8′OH-2-CF3-dihydroergotamine (8′OH-2-CF3-DHE). Table 1 summarizes the cell lines (CHO-K1/HEK293 transfected with relevant human receptor) and the assays performed to detect any agonist or antagonist activity.
cAMP HTRF (Gs) studies were conducted to monitor activity for 8′OH-2CF3-dihydroergotamine (8′OH-2CF3-DHE) against the receptors indicated in Table 1 above. Cells expressing the human recombinant receptor of interest were grown in media without antibiotic and detached by gentle flushing with PBS-EDTA (5 mM EDTA), recovered by centrifugation and resuspended in assay buffer (KRH: 5 mM KCl, 1.25 mM MgSO4, 124 mM NaCl, 25 mM HEPES, 13.3 mM glucose, 1.25 mM KH2PO4, 1.45 mM CaCl2, 0.5 g/L BSA). Dose response curves were performed in parallel with the reference compounds. For agonist tests (96-well plates), 12 μL of cells was mixed with 12 μL of the test compound at increasing concentrations and then incubated for 30 minutes at room temperature. Lysis buffer was added and after a 1 hour incubation, cAMP concentrations was determined according to the manufacturer specification with the HTRF kit. […] Lysis buffer was added and after a 1 hour incubation, cAMP concentrations were determined according to the manufacturer specification, with the HTRF kit.

The subject of assay [1] is Somatostatin (SST1 ~ SSTS). In words: GTPγ[35S] assay, Somatostatin receptors. Particulars: CHO-K1 membranes. The class given is biochemical, human. How it is done:
as §1
(§2) GTPγS studies were conducted to monitor agonist activity for 8′OH-2CF3-dihydroergotamine (8′OH-2CF3-DHE) against the receptors indicated in Table 1 above. Reagents used were the following: Assay buffer (20 mM HEPES, pH 7.4; 100 mM NaCl; 10 μg/mL saponin; 30 mM MgCl2); Membranes (recombinant human receptor membrane extracts were thawed on ice and diluted in assay buffer to give 1000 μg/mL ([…]) and kept on ice); GDP (diluted in assay buffer to give 30 μM solution (3 μM final concentration); beads (PVT-WGA (Amersham, RPNQ001), diluted in assay buffer at 25 mg/mL (0.25 mg/10 μL)); GTPγ^35S (Perkin Elmer, NEG030X), diluted in assay buffer to give 0.1 nM (final concentration); and ligand (agonist/antagonist diluted in assay buffer).
(§3) Membranes were mixed with GDP (1:1) and incubated for at least 15 minutes on ice. In parallel GTPγ^35S was mixed with the beads (1:1) just before starting the reaction. […] The plates were then centrifuged for 10 minutes at 2000 rpm and incubated at room temperature for 1 hour and counted for 1 min/well with a Perkin Elmer TopCount reader.

The next assay addresses T2, OX1 (Homo sapiens, UniProt O43613).
T2 construct: expressed in transfected cells; host or cells: CHO-AEQ (CHO-K1 coexpressing mitochondrial apoaequorin)
Kind of assay: Aequorin assay, Orexin OX1. The note with it: antagonism, CHO-AEQ. It counts as cell-based. Here is the method:
as §1
(§4) Aequorin assays were conducted to monitor activity for 8′OH-2CF3-dihydroergotamine (8′OH-2CF3-DHE) against the receptors indicated in Table 1 above (except for mGlu3 and mGlu5). CHO-K1 cells coexpressing mitochondrial apoaequorin and the recombinant human receptor of interest were grown to mid-log phase in culture media without antibiotics and then detached with PBS-EDTA, centrifuged and resuspended in assay buffer (DMEM/HAM's F12 with HEPES, without phenol red+0.1% BSA, protease free) at a concentration of 1×10^6 cell/mL. […]
(§5) 50 μL of the cell suspension was mixed with 50 μL of test or reference agonist in a 96-well plate. The resulting emission of light was recorded using Hamamatsu Functional Drug Screening System 6000 (FDSS 6000) luminometer. […]
(§6) To standardize the emission of recorded light (and determine of the “100% signal”) across plates and across different experiments, some wells contained 100 μM digitonin or a saturating concentration of ATP (20 μM).

The subject of assay [2] is VIP/PACAP (PAC1/VPAC1/VPAC2). Kind of assay: Aequorin assay, VIP/PACAP receptors. It counts as cell-based, human. The note with it: CHO-AEQ. How it is done: as §1, §4, §5, §6
In the next assay the target is T3, Dopamine D4 (Homo sapiens, UniProt P21917).
T3 construct: expressed in transfected cells; host or cells: CHO-K1 (membrane extracts)
In words: GTPγ[35S] assay, Dopamine D4. The class given is biochemical. Particulars: antagonism, CHO-K1 membranes. Here is the method: as §1, §2, §3

Another assay deals with T4, Adrenergic α2B (Homo sapiens, UniProt P18089).
T4 construct: expressed in transfected cells; host or cells: CHO-K1 (membrane extracts)
In words: GTPγ[35S] assay, Adrenergic α2B. It counts as biochemical. Particulars: antagonism, CHO-K1 membranes, read-out: Activity (Antagonism: IC50), Adrenergic a2B. How it is done: as §1, §2, §3

The next assay concerns the target T5, Serotonin 5-HT2B (Homo sapiens, UniProt P41595).
T5 construct: expressed in transfected cells; host or cells: CHO-K1 mAeq Gα16
In words: Aequorin assay, Serotonin 5-HT2B. The class given is cell-based. Particulars: antagonism; CHO-K1 mAeq Gα16, Aequorin. How it is done:
as §1, §4, §5, §6

The target in the next assay is T6, Serotonin 5-HT1D (Homo sapiens, UniProt P28221).
T6 construct: expressed in transfected cells; host or cells: CHO-K1 (membrane extracts)
Kind of assay: GTPγ[35S] assay, Serotonin 5-HT1D. The note with it: agonism, CHO-K1 membranes. It counts as biochemical. Here is the method: as §1, §2, §3

Some results are limits rather than exact numbers.

In general, EC50 refers to the midpoint of the concentration-response curve. Read a low EC50 as greater potency. For orientation: Emax means the size of the effect at its maximum, as opposed to the concentration needed. In general, IC50 refers to the concentration that gives 50% inhibition.

T1 sequence (P29274 whole entry): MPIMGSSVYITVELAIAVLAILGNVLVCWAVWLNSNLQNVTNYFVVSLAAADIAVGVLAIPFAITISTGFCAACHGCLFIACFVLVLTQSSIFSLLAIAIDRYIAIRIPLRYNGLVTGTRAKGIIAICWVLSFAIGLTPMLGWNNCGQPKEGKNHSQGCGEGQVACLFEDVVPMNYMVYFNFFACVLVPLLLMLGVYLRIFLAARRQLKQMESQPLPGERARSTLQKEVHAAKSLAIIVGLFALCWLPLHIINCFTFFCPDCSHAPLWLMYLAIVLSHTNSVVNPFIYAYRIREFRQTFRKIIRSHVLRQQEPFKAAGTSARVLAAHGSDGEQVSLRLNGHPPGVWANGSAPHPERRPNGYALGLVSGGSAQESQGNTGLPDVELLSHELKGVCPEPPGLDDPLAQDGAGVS
T3 sequence (P21917 whole entry): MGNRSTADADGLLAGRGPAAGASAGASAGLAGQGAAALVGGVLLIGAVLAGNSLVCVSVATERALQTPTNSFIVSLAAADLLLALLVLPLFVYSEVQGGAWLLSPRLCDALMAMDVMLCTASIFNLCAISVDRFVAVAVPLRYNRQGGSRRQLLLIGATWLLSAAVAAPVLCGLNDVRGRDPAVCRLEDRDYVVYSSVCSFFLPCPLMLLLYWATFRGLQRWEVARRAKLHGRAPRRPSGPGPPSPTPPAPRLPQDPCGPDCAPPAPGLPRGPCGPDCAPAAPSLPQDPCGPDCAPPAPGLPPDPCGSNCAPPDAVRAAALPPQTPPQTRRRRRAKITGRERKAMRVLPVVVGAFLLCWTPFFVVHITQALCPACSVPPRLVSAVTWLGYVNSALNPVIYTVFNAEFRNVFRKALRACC
T2 sequence (O43613 whole entry): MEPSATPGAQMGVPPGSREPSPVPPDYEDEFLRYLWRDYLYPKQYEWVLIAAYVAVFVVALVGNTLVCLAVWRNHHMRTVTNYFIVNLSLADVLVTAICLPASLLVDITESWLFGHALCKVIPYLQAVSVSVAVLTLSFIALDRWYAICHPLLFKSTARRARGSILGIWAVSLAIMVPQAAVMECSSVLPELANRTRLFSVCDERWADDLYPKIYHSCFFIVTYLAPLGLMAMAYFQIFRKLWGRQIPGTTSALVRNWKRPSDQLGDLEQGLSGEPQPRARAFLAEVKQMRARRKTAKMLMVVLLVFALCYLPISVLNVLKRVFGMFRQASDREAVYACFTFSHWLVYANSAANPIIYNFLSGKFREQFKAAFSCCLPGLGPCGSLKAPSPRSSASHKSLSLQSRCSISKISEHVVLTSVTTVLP
T4 sequence (P18089 whole entry): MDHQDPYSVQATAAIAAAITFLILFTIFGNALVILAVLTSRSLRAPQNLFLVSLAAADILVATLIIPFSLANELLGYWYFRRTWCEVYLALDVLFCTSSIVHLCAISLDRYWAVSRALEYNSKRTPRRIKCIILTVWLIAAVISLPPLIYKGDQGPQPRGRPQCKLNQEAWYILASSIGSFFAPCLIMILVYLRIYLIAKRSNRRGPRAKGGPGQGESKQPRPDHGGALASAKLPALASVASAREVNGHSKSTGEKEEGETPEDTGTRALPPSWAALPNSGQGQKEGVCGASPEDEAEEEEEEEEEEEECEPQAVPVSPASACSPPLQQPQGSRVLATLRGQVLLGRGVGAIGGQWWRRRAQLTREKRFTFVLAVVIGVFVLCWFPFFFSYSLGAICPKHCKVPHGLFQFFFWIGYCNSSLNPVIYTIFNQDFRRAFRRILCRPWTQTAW
T6 sequence (P28221 whole entry): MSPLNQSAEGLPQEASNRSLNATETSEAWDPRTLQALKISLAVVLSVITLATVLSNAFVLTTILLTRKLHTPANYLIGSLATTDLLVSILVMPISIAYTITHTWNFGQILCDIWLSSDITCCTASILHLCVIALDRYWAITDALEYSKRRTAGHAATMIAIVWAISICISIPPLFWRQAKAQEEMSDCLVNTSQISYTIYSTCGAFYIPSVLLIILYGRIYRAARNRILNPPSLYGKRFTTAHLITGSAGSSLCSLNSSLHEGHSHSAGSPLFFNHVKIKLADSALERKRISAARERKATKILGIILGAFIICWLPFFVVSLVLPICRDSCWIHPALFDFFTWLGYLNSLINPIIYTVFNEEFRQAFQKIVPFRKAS
T5 sequence (P41595 whole entry): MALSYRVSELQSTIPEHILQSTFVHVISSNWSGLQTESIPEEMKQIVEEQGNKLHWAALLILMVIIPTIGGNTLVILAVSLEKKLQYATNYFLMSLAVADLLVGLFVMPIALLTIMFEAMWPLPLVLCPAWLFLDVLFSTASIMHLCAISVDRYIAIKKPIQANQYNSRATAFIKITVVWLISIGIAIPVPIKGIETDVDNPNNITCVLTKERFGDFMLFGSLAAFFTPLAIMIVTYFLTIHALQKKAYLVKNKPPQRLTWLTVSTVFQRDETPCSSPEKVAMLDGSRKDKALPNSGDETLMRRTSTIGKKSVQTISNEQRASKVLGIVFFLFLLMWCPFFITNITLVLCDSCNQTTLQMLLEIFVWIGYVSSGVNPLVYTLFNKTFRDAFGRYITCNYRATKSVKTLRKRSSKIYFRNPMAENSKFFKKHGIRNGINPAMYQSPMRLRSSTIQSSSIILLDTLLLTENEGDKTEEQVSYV

`CN1C[C@H](C(=O)N[C@]2(C)O[C@@]3(O)[C@@H]4CC[C@@H](O)N4C(=O)[C@H](Cc4ccccc4)N3C2=O)C[C@@H]2c3cccc4[nH]c(C(F)(F)F)c(c34)C[C@H]21` [8′OH-2-CF3-DHE, 8′-Hydroxy-2-CF3-dihydroergotamine]: the EC50 on Adenosine A2a and at Serotonin 5-HT1D was 5.27 nM each time. The molecule further showed an Emax at Adenosine A2a of 25%. The “Activity (Agonism: EC50; Antagonism: IC50), Somatostatin (SST1 ~ SSTS)” value in assay [1] is given as “Inactive”. The IC50 on OX1 was more than 10000 nM; at Dopamine D4 it was more than 10000 nM; at Adrenergic α2B, 777 nM; against Serotonin 5-HT2B, 88.2 nM. Besides, the “Activity (Agonism: EC50; Antagonism: IC50), VIP/PACAP (PAC1/VPAC1/VPAC2)” value in assay [2] was “Inactive”.
